Molecular target: T1, TRPC5-SYFP2 (TRPC5:C5 channels) (Homo sapiens, UniProt Q9UL62)
T1 construct: expressed in transfected cells
T1 sequence (Q9UL62 1-973): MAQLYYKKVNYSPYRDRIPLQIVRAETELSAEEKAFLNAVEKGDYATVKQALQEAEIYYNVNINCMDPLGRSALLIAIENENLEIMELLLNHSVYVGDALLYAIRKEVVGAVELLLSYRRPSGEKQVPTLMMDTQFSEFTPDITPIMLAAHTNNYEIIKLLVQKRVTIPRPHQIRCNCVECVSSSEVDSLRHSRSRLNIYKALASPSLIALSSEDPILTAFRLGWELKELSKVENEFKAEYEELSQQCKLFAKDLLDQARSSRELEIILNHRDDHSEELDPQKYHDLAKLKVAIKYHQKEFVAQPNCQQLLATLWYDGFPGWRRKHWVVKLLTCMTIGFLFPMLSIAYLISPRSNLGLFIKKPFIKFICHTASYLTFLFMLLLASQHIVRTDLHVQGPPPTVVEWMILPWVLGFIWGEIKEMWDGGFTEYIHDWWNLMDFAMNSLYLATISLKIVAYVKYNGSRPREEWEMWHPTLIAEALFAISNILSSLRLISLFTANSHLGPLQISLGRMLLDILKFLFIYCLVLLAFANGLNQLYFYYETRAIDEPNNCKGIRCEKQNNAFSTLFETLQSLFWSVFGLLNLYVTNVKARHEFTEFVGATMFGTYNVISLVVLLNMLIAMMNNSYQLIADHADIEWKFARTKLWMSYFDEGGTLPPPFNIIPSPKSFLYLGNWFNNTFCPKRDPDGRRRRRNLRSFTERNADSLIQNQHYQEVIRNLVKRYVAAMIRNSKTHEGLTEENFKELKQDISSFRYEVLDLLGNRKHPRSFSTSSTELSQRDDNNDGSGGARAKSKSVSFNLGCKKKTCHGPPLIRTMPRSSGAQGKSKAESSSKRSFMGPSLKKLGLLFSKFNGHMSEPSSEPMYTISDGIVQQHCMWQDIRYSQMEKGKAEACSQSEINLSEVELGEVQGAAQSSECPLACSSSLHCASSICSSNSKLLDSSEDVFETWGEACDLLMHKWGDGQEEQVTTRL
Test: [Ca2+]i measurement (Fura-2, FlexStation) in (Tet+) HEK T-REx cells expressing hTRPC5-SYFP2
Assay type: cell-based
Excerpt: To facilitate cloning of TRPC5‐SYFP2 and TRPC4‐SYFP2, a pcDNA™4/TO expression vector (ThermoFisher Scientific, Waltham, MA, USA), into which a four amino acid linker (ASAS) flanked by AgeI and SacII restriction sites had been introduced between EcoRI and XhoI restriction sites, was used (Naylor et al., 2016). Human TRPC4β was inserted between BamHI and AgeI restriction sites as described previously (Ludlow et al., 2017). Human TRPC5 (forward primer: 5′ GCTTGGTACCGCCACCATG 3′ and reverse primer: 5′ […] 3′) was inserted upstream of the linker between KpnI and AgeI restriction sites using hTRPC5/pcDNA™4/TO (Zeng et al., 2004) as a PCR template. Both constructs contained an N‐terminal Kozak sequence. SYFP2 was inserted downstream of the linker between SacII and XbaI restriction sites using pSYFP2‐C1 as a PCR template (forward primer, 5′ […] 3′; reverse primer, 5′ […] 3′). pSYFP2‐C1 was a gift from Dorus Gadella (Addgene plasmid #22878; http://n2t.net/addgene:22878; RRID:Addgene_22878; Kremers, Goedhart, van Munster, & Gadella, 2006). Plasmids were sequenced to verify identity.
HEK T‐REx™ cell line was transfected with TRPC5‐SYFP2 or TRPC4‐SYFP2 using FuGENE® HD transfection reagent. After 48 hr, cells were put under antibiotic selection using 400 μg·ml^−1 zeocin and 10 μg·ml^−1 blasticidin S (Invivogen, San Diego, California, USA). Medium changes were carried out regularly to remove dead cells. HEK T‐REx cells expressing tetracycline‐inducible human TRPC5, TRPC4–C1, and TRPC5–C1 were created as described previously (Akbulut et al., 2015; Ludlow et al., 2017; Rubaiy, Ludlow, Henrot, et al., 2017). TRPC5–C1 and TRPC4–C1 concatemers allow expression of functional channels with defined 2:2 stoichiometry that display ion permeability and current–voltage relationships distinct from those of homomeric TRPC4:C4 or TRPC5:C5 channels and consistent with those obtained upon co‐expression of TRPC1 with TRPC4 or TRPC5 (Ludlow et al., 2017; Rubaiy, Ludlow, Bon, & Beech, 2017; Rubaiy, Ludlow, Henrot, et al., 2017). Cells were cultured in DMEM‐F12 GlutaMAX (Invitrogen, Paisley, UK) containing 10% FBS (Sigma‐Aldrich, Gillingham, UK), with the addition of blasticidin (10 μg·ml^−1) and zeocin (400 μg·ml^−1) to maintain the stable incorporation of the tetracycline repressor and the channel of interest, respectively. Expression of proteins was induced by the addition of tetracycline (1 μg·ml^−1, 24 hr). Cells were maintained in a humidified incubator with 5% CO2 at 37°C. HEK 293 cells stably expressing tetracycline‐regulated human http://www.guidetopharmacology.org/GRAC/ObjectDisplayForward?objectId=494 were prepared similarly and have also been described previously (McHugh, Flemming, Xu, Perraud, & Beech, 2003). For experiments using transient co‐expression of TRPC1 and TRPC5, HEK cells at 40–60% confluency were transfected with pIRES2‐AcGFP1 and pIRES2‐DsRed‐Express2 plasmids containing human TRPC1 and TRPC5, respectively, using Lipofectamine 3000 (ThermoFisher Scientific, Yokohama, Japan). All experiments using transient expression were performed within 48 hr after transfection. A498 cells were cultured in Minimum Essential Medium containing Earle's salts (ThermoFisher Scientific, Loughborough, UK), supplemented with 10% FBS and penicillin–streptomycin (100 units per ml^−1, 100 μg·ml^−1; ThermoFisher Scientific, Loughborough, UK). CHO cells stably expressing http://www.guidetopharmacology.org/GRAC/ObjectDisplayForward?objectId=510 were maintained in Ham's Nutrient Mixture F12 (ThermoFisher Scientific, Loughborough, UK) supplemented with 10% FBS, penicillin–streptomycin, and 1 mg·ml^−1 G418 (InvivoGen, San Diego, California, USA). For experiments using hTRPC3 and hTRPC6, WT HEK 293 cells were transfected with hTRPC3 (Naylor et al., 2016) or hTRPC6 (cloned into pcDNA3) using jetPRIME® transfection reagent (VWR, Lutterworth, UK). Cells were assayed 48 hr after transfection. […]

Cn1c(=O)n(CCCO)c(=O)c2c1nc(Oc1ccc(Cl)c(OC(F)(F)F)c1)n2Cc1ccc(Cl)cc1 [AM237]
Hill slope, suppression of EA response (10 nM EA): -2.2
Effect on S1P-mediated [Ca2+]i response (0.3 to 1 nM AM237, 30 min pre-incubation, 10 μM S1P): no significant effect
Effect on [Ca2+]i in the absence of extracellular Ca2+ (0.3–300 nM, Ca2+-free SBS with 0.4 mM EGTA): did not increase
Effect on S1P-mediated activation of TRPC5:C5 (3–300 nM AM237, 30 min pre-incubation, 10 μM S1P): significantly increased
IC50 (30 min pre-incubation, then 10 nM EA, read-out: Relative IC50, suppression of EA-mediated [Ca2+]i response): 13 nM
EC50 (Control (DMSO pretreatment), competition experiment, read-out: EC50, activation): 10 nM
Effect on S1P response upon simultaneous addition (co-application of 10 μM S1P and 0.3–300 nM AM237): increases of the responses to S1P
Hill slope, activation (hTRPC5-SYFP2 concentration–response curve): 1.4
